# Test results published in patent US12390437B2, “Itaconic acid derivatives and uses thereof intreating an inflammatory disease or a disease associated with an undesirable immune response” (Sitryx Therapeutics Limited, priority 2019, dated 2025).
# Where a name gives a salt, the structure may show the parent alone.
# How the values were obtained:
# Assay type in all cases: cell-based
# [1] = system: IL-1β cytokine output from isolated primary HMDMs; experiment: Primary human monocyte derived macrophages (HMDMs) AlphaLISA IL-1β cytokine assay; settings: primary HMDMs (M-CSF 7 day), LPS 24 hr then Nigericin 1 hour
# Method: Measuring Inhibitory Effects on IL-1β Cytokine Output from Isolated Primary HMDMs
# The cytokine inhibition profiles of compounds of formula (IW-1) were determined in a monocyte differentiated macrophage cell assay. All assays were performed in RPMI-1640 growth medium (Gibco), supplemented with heat-inactivated fetal bovine serum (FBS) and 1% penicillin-streptomycin unless specified otherwise. The IL-1β cytokine inhibition assay was run in a background of isolated primary HMDM cells as described below. All reagents described were from Sigma-Aldrich unless specified otherwise. Compounds were prepared as 100 mM DMSO stocks.
# Primary peripheral blood mononuclear cells (PBMCs) were isolated from human whole blood. Following PBMC isolation, a CD14^+ monocyte isolation step was conducted whereby CD14^+ magnetic beads (Miltenyi Biotec) were incubated for 15 minutes with the PBMC suspension that was previously treated with ice cold T-cell isolation buffer (PBS, 0.5% BSA, 2 mM EDTA). Following bead incubation, the treated cell suspension was passed through a magnetic separation column designed to positively select for magnetically labelled cells. The isolated CD14^+ monocytes were subsequently plated at an appropriate cell density and treated fora 7 day period with M-CSF (BioLegend) to drive macrophage differentiation. Following the differentiation period, working concentrations of compounds were prepared separately in RPMI-1640 only growth medium and pre-incubated with the cells for 30 minutes (37° C./5% CO2). Following the 30 minute compound pre-incubation, primary HMDMs were treated with an appropriate concentration of LPS and subsequently incubated for a 24 hr period (37° C./5% CO2). Nigericin was added and incubated for 1 hour prior to harvesting primary HMDM supernatants and collected in separate polypropylene 96-well holding plates prior to commencing the AlphaLISA cytokine assay.
# Reagents from the IL-1β commercial kit (Perkin Elmer) was prepared and run according to the manufacturer's instructions. Subsequently, fluorescence signal was measured in a microplate reader (EnVision® Multilabel Reader, Perkin Elmer).
# (§1) Percentage inhibition was calculated per cytokine by normalising the sample data to the high and low controls used within each plate (+/−LPS respectively). Percentage inhibition was then plotted against compound concentration and the 50% inhibitory concentration (IC50) was determined from the resultant concentration-response curve.
# [2] = system: IL-6 cytokine output from isolated primary human monocytes; experiment: Primary human monocyte AlphaLISA IL-6 cytokine assay; settings: CD14+ primary human monocytes, LPS 24 hr then Nigericin 1 hour
# Method: Measuring Inhibitory Effects on IL-1β and IL-6 Cytokine Output from Isolated Primary Human Monocytes
# The cytokine inhibition profiles of compounds of formula (IW-1) were determined in a CD14^+ isolated primary human monocyte cell assay. All assays were performed in RPMI-1640 growth medium (Gibco), supplemented with heat-inactivated fetal bovine serum (FBS) and 1% penicillin-streptomycin unless specified otherwise. The IL-1β and IL-6 cytokine inhibition assays were each run in a background of isolated primary human monocyte cells as described below. All reagents described were from Sigma-Aldrich unless specified otherwise. Compounds were prepared as 100 mM DMSO stocks.
# Primary peripheral blood mononuclear cells (PBMCs) were isolated from human whole blood. Following PBMC isolation, a CD14^+ monocyte isolation step was conducted whereby CD14^+ magnetic beads (Miltenyi Biotec) were incubated for 15 minutes with the PBMC suspension that was previously treated with ice cold T-cell isolation buffer (PBS, 0.5% BSA, 2 mM EDTA). Following bead incubation, the treated cell suspension was passed through a magnetic separation column designed to positively select for magnetically labelled cells. The isolated CD14^+ monocytes were subsequently plated at the appropriate cell density for the assay, prior to compound treatment on the day of plating. Working concentrations of compounds were prepared separately in RPMI-1640 only growth medium and pre-incubated with the cells for 30 minutes (37° C./5% CO2). Following the 30 minute compound pre-incubation, primary monocytes were treated with an appropriate concentration of LPS and subsequently incubated for a 24 hr period (37° C./5% CO2). An appropriate final concentration of Nigericin was then dispensed into the primary monocyte plates and incubated for 1 hour (37° C./5% CO2) before monocyte supernatants were harvested and collected in separate polypropylene 96-well holding plates prior to commencing the AlphaLISA cytokine assay.
# Reagents from each of the IL-1β and IL-6 commercial kits (Perkin Elmer) were prepared and run according to the manufacturer's instructions. Subsequently, fluorescence signal was measured in a microplate reader (EnVision® Multilabel Reader, Perkin Elmer).
# as §1
# NQO1 = NQO1 enzyme activation assay as a readout of NRF2 activation in THP-1 cells; settings: Homo sapiens; for Emax: THP-1, percentage activation at top concentration, normalised to DMF (100%) and vehicle controls; for EC50: differentiated THP-1 cells, LPS, 48 hr
# Method: NQO1 Enzyme Activation Assay as a Readout of NRF2 Activation in THP-1 Cellular Background
# NAD(P)H dehydrogenase [quinone] […] Induction of this gene is concomitant with the inhibition of proinflammatory cytokine transcription and suppression of the inflammatory response (Kobayashi E. H. et al., 2016). The NQO1 enzyme activation activities of compounds of formula (IW-1) were determined using a cellular based NQO1 activation assay (Abcam). The NQO1 activation assay was run in differentiated THP-1 cells (a human monocyte-like cell line) as described below. All reagents described are from Sigma-Aldrich unless specified otherwise. Compounds were prepared as 10 mM DMSO stocks.
# THP-1 cells were expanded as a suspension up to 80% confluence in appropriate growth medium. Cells were harvested, suspended, treated with phorbol 12-myristate 13-acetate (PMA) and plated according to the cell density required for each plate format over a 72 hr period (37° C./5% CO2).
# Following 72 hrs of THP-1 cell incubation, cellular medium was removed and replaced with fresh media. Working concentrations of compounds were prepared and pre-incubated for 30 minutes (37° C./5% CO2). Compound treatment was then applied to the PMA treated THP-1 cell plate followed by LPS treatment. A ‘low’ (DMSO vehicle only) control and ‘high’ (designated concentration of dimethyl fumarate) was applied to each plate at the point of compound treatment. Cells were subsequently incubated for a 48 hr period (37° C./5% C02) after which all NQO1 assay reagents were prepared according to the manufacturer's instructions. NQO1 extraction buffer was applied to PBS washed THP-1 cells and incubated on ice for 15 minutes to prepare THP-1 lysates for the NQO1 activity assay. THP-1 lysates were diluted 1:5 with PBS and treated with a 1:1 volume of kit prepared NQO1 Reaction Buffer. Absorbance was subsequently measured kinetically on an appropriate reader over a 6 minute period.
# For activation determination, the fold change in response per well was determined by first calculating the average NQO1 activation data for the vehicle control and then dividing the individual well response by the averaged NQO1 response for the vehicle control as shown below: Fold change=(Sample value)/MeanMin Where ‘Min’=vehicle control only
# The relative 50% activation concentration (EC50) was determined from the resulting fold change response curve. The maximum efficacy (Emax) was reported as the percentage activation calculated at the top concentration of compound used in the titration applied. If a full curve was unattainable preventing a correct curve fit, the Emax value was extrapolated using existing curve data. All percentage activation data were normalised to the DMF and vehicle controls, meaning the Emax represents the percentage […] achieved by a compound at a particular concentration relative to that achieved by DMF (set as the ‘High’ control and therefore representative of 100% activation).
SMILES,IC50 [1] [µM],IC50 [2] [µM],Emax (NQO1) [%],EC50 (NQO1) [µM]
"C=C(CC(=O)OCCCCCCCC)C(=O)OCCC#N [Example 1, 1-(2-cyanoethyl) 4-octyl 2-methylenesuccinate]",0.4,26.9,167,6.9
"C=C(CC(=O)OCCCCCCCC)C(=O)OCCS(C)(=O)=O [Example 2, 1-(2-(methylsulfonyl)ethyl) 4-octyl 2-methylenesuccinate]",0.3,13.2,213,4.6
"C=C(CC(=O)OCCCCCCCC)C(=O)OCCC(F)(F)F [Example 3, 4-octyl 1-(3,3,3-trifluoropropyl) 2-methylenesuccinate]",0.7,,91,14.7
"C=C(CC(=O)OCCCCCCCC)C(=O)OC1COC1 [Example 4, 4-octyl 1-(oxetan-3-yl) 2-methylenesuccinate]",0.4,,171,13.6
"C=C(CC(=O)OCCCCCCCC)C(=O)OCCN1C(=O)CCC1=O [Example 9, 1-(2-(2,5-dioxopyrrolidin-1-yl)ethyl) 4-octyl 2-methylenesuccinate]",1.2,10.7,98,9.8
"COC(=O)/C=C/C(=O)OC [dimethyl fumarate, reference compound]",2,15.7,126,12.9
"C=C(CC(=O)OC)C(=O)OC [dimethyl itaconate, reference compound]",,,144,74.1
